Experimental data published in patent US11884676B2, “Substituted pyrimido[1,2-b]pyridazines as positive allosteric modulators of the muscarinic acetylcholine receptor M4” (Vanderbilt University, priority 2020, dated 2024).

Biological target: T1, Human M4 (Homo sapiens, UniProt P08173)
T1 construct: expressed in transfected cells
T1 sequence (P08173 1-479): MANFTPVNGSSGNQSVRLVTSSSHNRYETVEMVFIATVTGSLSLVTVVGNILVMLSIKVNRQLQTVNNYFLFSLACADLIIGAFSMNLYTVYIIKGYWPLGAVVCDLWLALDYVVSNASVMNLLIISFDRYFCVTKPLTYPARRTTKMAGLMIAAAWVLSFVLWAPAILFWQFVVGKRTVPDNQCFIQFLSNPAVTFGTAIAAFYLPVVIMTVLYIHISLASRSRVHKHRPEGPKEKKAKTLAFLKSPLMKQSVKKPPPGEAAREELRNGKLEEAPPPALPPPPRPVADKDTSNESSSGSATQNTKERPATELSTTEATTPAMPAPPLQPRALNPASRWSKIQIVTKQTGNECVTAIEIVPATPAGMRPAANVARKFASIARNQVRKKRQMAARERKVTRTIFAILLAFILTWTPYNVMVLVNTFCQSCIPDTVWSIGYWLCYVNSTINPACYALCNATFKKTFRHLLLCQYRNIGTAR
Assay: mAChR M4 cell-based functional assay (calcium flux, PAM mode)
Parameters: Emax: dose or concentration left out as unconfirmed
Details: for Emax at 30 µM: CHO-K1, % ACh maximum at 30 μM; for Emax at 30 µM / EC50: hM4-Gqi5 CHO-K1 cells; for EC50: concentration-dependent increase in the EC20 acetylcholine response
Description: Human and rat M4 cDNAs, along with the chimeric G protein Gqi5, were transfected into Chinese hamster ovary (CHO-K1) cells purchased from the American Type Culture Collection using Lipofectamine2000. hM4-Gqi5 cells were grown in Ham's F-12 medium containing 10% heat-inactivated fetal bovine serum (FBS), 20 mM HEPES, 50 μg/mL G418 sulfate, and 500 μg/mL Hygromycin B. rM4-Gqi5 cells were grown in DMEM containing 10% heat-inactivated FBS, 20 mM HEPES, 400 μg/mL G418 sulfate, and 500 μg/mL Hygromycin B.
For high throughput measurement of agonist-evoked increases in intracellular calcium, CHO-K1 cells stably expressing muscarinic receptors were plated in growth medium lacking G418 and hygromycin at 15,000 cells/20 μL/well in Greiner 384-well black-walled, tissue culture (TC)-treated, clear-bottom plates (VWR). Cells were incubated overnight at 37° C. and 5% CO2. The next day, cells were washed using an ELX 405 (BioTek) with assay buffer; the final volume was then aspirated to 20 μL. Next, 20 μL of a 2.3 μM stock of Fluo-4/acetoxymethyl ester (Invitrogen, Carlsbad, CA), prepared as a 2.3 mM stock in DMSO and mixed in a 1:1 ratio with 10% (w/v) Pluronic F-127 and diluted in assay buffer, was added to the wells and the cell plates were incubated for 50 min at 37° C. and 5% CO2. Dye was removed by washing with the ELX 405 and the final volume was aspirated to 20 μL. Compound master plates were formatted in an 11 point concentration-response curve (CRC) format (1:3 dilutions) in 100% DMSO with a starting concentration of 10 mM using a BRAVO liquid handler (Agilent). Test compound CRCs were then transferred to daughter plates (240 nL) using the Echo acoustic plate reformatter (Labcyte, Sunnyvale, CA) and then diluted into assay buffer (40 μL) to a 2× stock using a Thermo Fisher Combi (Thermo Fisher Scientific, Waltham, MA).
Calcium flux was measured using the Functional Drug Screening System (FDSS) 6000 or 7000 (Hamamatsu Corporation, Tokyo, Japan) as an increase in the fluorescent static ratio. Compounds were applied to cells (20 μL, 2×) using the automated system of the FDSS at 2-4 seconds into the protocol and the data were collected at 1 Hz. At 144 seconds, 10 μL of an EC20 concentration of the muscarinic receptor agonist acetylcholine was added (5×), followed by the addition of 12 μL of an EC80 concentration of acetylcholine at the 230 second time point (5×). Agonist activity was analyzed as a concentration-dependent increase in calcium mobilization upon compound addition. Positive allosteric modulator activity was analyzed as a concentration-dependent increase in the EC20 acetylcholine response. Antagonist activity was analyzed as a concentration-dependent decrease in the EC80 acetylcholine response. Concentration-response curves were generated using a four-parameter logistical equation in XLFit curve fitting software (IDBS, Bridgewater, NJ) for Excel (Microsoft, Redmond, WA) or Prism (GraphPad Software, Inc., San Diego, CA).
Compounds were synthesized as described above. Activity (EC50 and Emax) was determined in the mAChR M4 cell-based functional assay as described above and the data are shown in Table 2. The compound number corresponds to the compound numbers used in Examples 1 to 11 and Tables 1.

| Compound | Emax at 30 µM [%] | EC50 [nM] | Emax (CHO-K1, read-out: Human M4 Emax (%)*) [%] |
| --- | --- | --- | --- |
| [2H]C1(Oc2ccc3c(c2)OC([2H])([2H])C([2H])([2H])O3)CCN(c2nn3c(=O)ccnc3c(C)c2COC)CC1 [Compound 102, 7-(4-((2,3-dihydrobenzo[b][1,4]dioxin-6-yl-2,2,3,3-d4)oxy)piperidin-1-yl-4-d)-8-(methoxymethyl)-9-methyl-4H-pyrimido[1,2-b]pyridazin-4-one] | 94 | 170 | – |
| Cc1cc2nccc(=O)n2nc1N1CC[C@@H](Oc2ccc3c(c2)OCCO3)[C@@H](F)C1 [Compound 34, 7-((3S,4R)-4-((2,3-dihydrobenzo[b][1,4]dioxin-6-yl)oxy)-3-fluoropiperidin-1-yl)-8-methyl-4H-pyrimido[1,2-b]pyridazin-4-one] | 116 | 70 | – |
| [2H]C1([2H])Oc2ccc(OC3CCN(c4nn5c(=O)c(F)c(C)nc5cc4C)CC3)cc2OC1([2H])[2H] [Compound 15, 7-(4-((2,3-Dihydrobenzo[b][1,4]dioxin-6-yl-2,2,3,3-d4)oxy)piperidin-1-yl)-3-fluoro-2,8-dimethyl-4H-pyrimido[1,2-b]pyridazin-4-one] | 80 | 20 | – |
| Cc1ccc(OC2CCN(c3nn4c(=O)cc(C(F)F)nc4c(C)c3C)CC2)cn1 [Compound 78, 2-(difluoromethyl)-8,9-dimethyl-7-(4-((6-methylpyridin-3-yl)oxy)piperidin-1-yl)-4H-pyrimido[1,2-b]pyridazin-4-one] | 95 | 76 | – |
| [2H]C1([2H])Oc2ccc(O[C@H]3CCN(c4nn5c(=O)ccnc5c(C)c4C)C[C@@H]3F)cc2OC1([2H])[2H] [Compound 117, 7-((3S,4S)-4-((2,3-dihydrobenzo[b][1,4]dioxin-6-yl-2,2,3,3-d4)oxy)-3-fluoropiperidin-1-yl)-8,9-dimethyl-4H-pyrimido[1,2-b]pyridazin-4-one] | 93 | 326 | – |
| [2H]C1(Oc2ccc3c(c2)OC([2H])([2H])C([2H])([2H])O3)CCN(c2nn3c(=O)c(C)c(C)nc3cc2C)CC1 [Compound 47, 7-(4-((2,3-dihydrobenzo[b][1,4]dioxin-6-yl-2,2,3,3-d4)oxy)piperidin-1-yl-4-d)-2,3,8-trimethyl-4H-pyrimido[1,2-b]pyridazin-4-one] | 81 | 51 | – |
| Cc1c(N2CCC(Oc3ccc(F)cc3)CC2)nn2c(=O)ccnc2c1C [Compound 83, 7-(4-(4-fluorophenoxy)piperidin-1-yl)-8,9-dimethyl-4H-pyrimido[1,2-b]pyridazin-4-one] | 89 | 186 | – |
| Cc1cc2nccc(=O)n2nc1N1CC[C@@H](Oc2ccc3c(c2)OCCO3)[C@H](C)C1 (single isomer, unassigned) [Compound 114, 7-((3R,4R) or (3S,4S))-4-((2,3-dihydrobenzo[b][1,4]dioxin-6-yl)oxy)-3-methylpiperidin-1-yl)-8-methyl-4H-pyrimido[1,2-b]pyridazin-4-one] | 102 | 160 | – |
| [2H]C1([2H])Oc2ccc(O[C@H]3CCN(c4nn5c(=O)ccnc5cc4C)C[C@H]3F)cc2OC1([2H])[2H] [Compound 112, 7-((3R,4S)-4-((2,3-dihydrobenzo[b][1,4]dioxin-6-yl-2,2,3,3-d4)oxy)-3-fluoropiperidin-1-yl)-8-methyl-4H-pyrimido[1,2-b]pyridazin-4-one] | 108 | 75 | – |
| Cc1c(N2CCC(Oc3ccc(C(F)(F)F)cc3)CC2)nn2c(=O)ccnc2c1C [Compound 80, 8,9-dimethyl-7-(4-(4-(trifluoromethyl)phenoxy)piperidin-1-yl)-4H-pyrimido[1,2-b]pyridazin-4-one] | 76 | 2180 | – |
| [2H]C1([2H])Oc2cc(OC3CCN(c4nn5c(=O)c(Cl)cnc5cc4C)CC3)cc(C)c2OC1([2H])[2H] [Compound 27, 3-chloro-8-methyl-7-(4-((8-methyl-2,3-dihydrobenzo[b][1,4]dioxin-6-yl-2,2,3,3-d4)oxy)piperidin-1-yl)-4H-pyrimido[1,2-b]pyridazin-4-one] | 79 | 108 | – |
| Cc1ccc(OC2CCN(c3nn4c(=O)ccnc4c(C)c3C)CC2)cn1 [Compound 86, 8,9-dimethyl-7-(4-((6-methylpyridin-3-yl)oxy)piperidin-1-yl)-4H-pyrimido[1,2-b]pyridazin-4-one] | 101 | 341 | – |
| Cc1cc2nccc(=O)n2nc1N1CC[C@@H](Oc2ccc3c(c2)OCCO3)[C@@H](C)C1 (single isomer, unassigned) [Compound 113, 7-((3R,4S) or (3S,4R))-4-(2,3-dihydrobenzo[b][1,4]dioxin-6-yl)oxy)-3-methylpiperidin-1-yl)-8-methyl-4H-pyrimido[1,2-b]pyridazin-4-one] | 96 | 110 | – |
| [2H]C1(Oc2ccc3c(c2)OC([2H])([2H])C([2H])([2H])O3)CCN(c2nn3c(=O)cc(C(C)C)nc3c(C)c2C)CC1 [Compound 96, 7-(4-((2,3-dihydrobenzo[b][1,4]dioxin-6-yl-2,2,3,3-d4)oxy)piperidin-1-yl-4-d)-2-isopropyl-8,9-dimethyl-4H-pyrimido[1,2-b]pyridazin-4-one] | 85 | 99 | – |
| CCc1cc(=O)n2nc(N3CCC(Oc4ccc5c(c4)OCCO5)CC3)c(C)c(C)c2n1 [Compound 11, 7-(4-((2,3-Dihydrobenzo[b][1,4]dioxin-6-yl-2,2,3,3-d4)oxy)piperidin-1-yl)-2-ethyl-8,9-dimethyl-4H-pyrimido[1,2-b]pyridazin-4-one] | 99 | 49 | – |
| Cc1cc2nccc(=O)n2nc1N1CC[C@@H](Oc2ccc3c(c2)OCCO3)C[C@H]1C (stereo in doubt) [Compound 106, 7-((2R,4R)-4-((2,3-dihydrobenzo[b][1,4]dioxin-6-yl)oxy)-2-methylpiperidin-1-yl)-8-methyl-4H-pyrimido[1,2-b]pyridazin-4-one] | 81 | 818 | – |
| [2H]C1([2H])Oc2ccc(OC3CCN(c4nn5c(=O)ccnc5c(C)c4COC)CC3)cc2OC1([2H])[2H] [Compound 18, 7-(4-((2,3-Dihydrobenzo[b][1,4]dioxin-6-yl-2,2,3,3-d4)oxy)piperidin-1-yl)-8-(methoxymethyl)-9-methyl-4H-pyrimido[1,2-b]pyridazin-4-one] | 90 | 162 | – |
| Cc1c(N2CCC(Oc3ccc(Cl)cc3)CC2)nn2c(=O)ccnc2c1C [Compound 87] | – | 268 | 93 |
| Cc1cc2nccc(=O)n2nc1N1CC[C@H](Oc2ccc3c(c2)OCCO3)[C@H](F)C1 [Compound 43, 7-((3R,4S)-4-((2,3-dihydrobenzo[b][1,4]dioxin-6-yl)oxy)-3-fluoropiperidin-1-yl)-8-methyl-4H-pyrimido[1,2-b]pyridazin-4-one] | 69 | 171 | – |
| [2H]C1([2H])Oc2ccc(O[C@@H]3CCN(c4nn5c(=O)ccnc5cc4C)C[C@H]3F)cc2OC1([2H])[2H] [Compound 41, 7-((3R,4R)-4-((2,3-dihydrobenzo[b][1,4]dioxin-6-yl-2,2,3,3-d4)oxy)-3-fluoropiperidin-1-yl)-8-methyl-4H-pyrimido[1,2-b]pyridazin-4-one] | 114 | 159 | – |
